Patent publication US9089499B2, “Para-coumaric acid or para-hydroxycinnamic acid derivatives and their use in cosmetic or dermatological compositions” (BASF Beauty Care Solutions France S.A.S., priority 2005, dated 2015)

How the values were obtained:
eye of rabbits = assay: Ocular irritation in rabbits; format: in vivo; details: 10% in a 0.5% xanthan gel; pure, 0.1 ml single instillation, rabbit eye
Procedure: The preparations described above were instilled pure, in a single application, at a rate of 0.1 ml, into the eye of 3 rabbits according to the method recommenced by the OCDE Directive No. 405 of 24 February 1987 concerning the study of the “acute irritant/corrosive effect on the eyes”.

fungal tyrosinase = assay: In vitro test of inhibition of isolated fungal tyrosinase (L-dopa, dopachrome OD 490 nm); format: biochemical; details: 490 nm
From the text: Tyrosinase catalyses the formation of L-dopaquinone and then of dopachrome from L-dopa. Now, dopachrome is a coloured compound that may be quantified by visible spectrophotometry at 490 nm. The use of an active agent capable of modifying the enzymatic activity will be reflected by a variation in the optical density at 490 nm. The to ratio of the rates of formation of dopachrome makes it possible to determine precisely the activations or inhibitions obtained with the various test molecules.
The sample to be tested is incubated in the presence of fungal tyrosinase (Sigma), for 5 minutes with stirring. L-Dopa (Sigma), a tyrosinase substrate, is incubated for 10 minutes in the absence of light, in the presence or absence of the test molecules. The calculation of the percentage of inhibition is performed by relating the test OD to the OD of the negative control without molecule.
In the context of this in vitro test, the p-coumaric acid derivatives were tested at final concentrations of 10^−4M and 10^−5M.

Human tyrosinase = target: T1, Human tyrosinase (Homo sapiens, UniProt P14679); assay: In vitro test of inhibition of human tyrosinase from melanocyte extracts (L-dopa/MBTH, OD 490 nm); format: biochemical; details: melanocyte extract
T1 construct: endogenous in cells; host or cells: normal human melanocytes (abdominal surgery; several donors of fair, brown and black phototypes)
T1 sequence (P14679 19-529): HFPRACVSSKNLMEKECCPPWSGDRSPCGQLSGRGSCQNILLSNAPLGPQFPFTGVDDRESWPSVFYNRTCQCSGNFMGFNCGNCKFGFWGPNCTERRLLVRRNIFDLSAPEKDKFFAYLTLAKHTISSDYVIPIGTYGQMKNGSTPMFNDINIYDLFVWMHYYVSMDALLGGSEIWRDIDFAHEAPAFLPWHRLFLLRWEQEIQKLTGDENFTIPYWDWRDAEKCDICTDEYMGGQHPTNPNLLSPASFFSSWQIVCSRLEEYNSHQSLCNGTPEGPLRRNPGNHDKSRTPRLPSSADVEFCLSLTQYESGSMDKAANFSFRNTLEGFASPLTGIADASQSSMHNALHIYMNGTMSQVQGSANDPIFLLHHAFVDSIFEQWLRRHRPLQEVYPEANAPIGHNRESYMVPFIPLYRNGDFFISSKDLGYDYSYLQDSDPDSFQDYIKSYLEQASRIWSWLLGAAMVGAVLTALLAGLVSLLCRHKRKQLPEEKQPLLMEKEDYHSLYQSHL
Procedure: Human tyrosinase, obtained from melanocyte extracts obtained from healthy donors, catalyses the formation of L-dopaquinone from L-dopa. Now, the L-dopaquinone may be quantified by visible spectrophotometry at 490 nm by means of a chromogen: 3-methyl-2-benzothiazolinone hydrazone (MBTH).
The melanocyte extract is obtained after lysis of cell membranes of the normal human melanocytes, performed via a thermal shock. The supernatant is recovered and then incubated with MBTH (Sigma) and L-dopa (Sigma). […]

skin of rabbits = assay: Primary skin irritation in rabbits; format: in vivo; details: 10% in a 0.5% xanthan gel; undiluted, 0.5 ml to the skin of rabbits
Procedure: The preparations described above are applied without dilution at a dose of 0.5 ml to the skin of 3 rabbits according to the method recommended by the OCDE Directive concerning the study of “the acute irritant/corrosive effect on the skin”. The products are classified according to the criteria defined by the decree of 1/2/1982 published in the JORF of 21/02/82.

[1] = Antiradical activity, acellular DPPH model; details: DPPH 30 minutes, absorbance 520 nm
Procedure: The antiradical activity of the derivatives derived from the syntheses described above was evaluated in an in vitro acellular model using DPPH.
1,1-Diphenyl 2-picryihydrazyl, on account of its paramagnetic structure, can accept an electron or a hydrogen radical to become a stable diamagnetic molecule. This free radical, which is purple coloured in ethanol, has a strong absorption band at 520 nm.
The addition of a compound that provides electrons results in a decolorization of the 1,1-diphenyl 2-picrylhydrazyl that is proportional to the number of electrons taken up by the radical, which may be monitored by measuring the absorbance at 520 nm.
DPPH is incubated for 30 minutes in the presence of the derivatives described above, tested at a concentration of 10^−5M, or alone for the control. At the end of the incubation, the antiradical activity of the above derivatives is evaluated by measuring the absorbance of the solution at 520 nm.
The antiradical activity of each test product is calculated according to the formula, as a percentage: 100−((OD520 in the presence of the test compound/OD520 in the absence of compound)×100)

guinea pigs = assay: Skin sensitization potential in guinea pigs (Magnusson and Kligmann maximization test); format: in vivo; details: 10% in a 0.5% xanthan gel
From the text: The preparations described are subjected to the maximization test described by Magnusson and Kligmann, which protocol is in accordance with the OCDE guideline No. 406.

normal human melanocytes = assay: Cytotoxicity on normal human melanocytes, PNPP assay; format: cell-based; details: 24 hours, relative to untreated wells
Procedure: The cytotoxicity of the active agents is studied on normal human melanocytes in 24-well plates, via assay with PNPP (P-nitrophenyl phosphate), this substance being converted into p-nitrophenol via the intracellular acid phosphatases of viable cells. The absorbance of p-nitrophenol at 405 nm is directly proportional to the number of viable cells.
The active agents are tested at 2 different concentrations (10^−4 M and 10^−5 M) and added to the culture medium and incubated at 37° C. for 24 hours. The assay with PNPP is performed on the cell lawn and the results are expressed as a percentage of viability relative to the negative control (untreated wells).

rats = assay: in vivo; details: both, rat, po
Procedure: (§1) The toxicology tests were performed on the compound obtained according to Example 1 incorporated at 10% into a 0.5% xanthan gel, by ocular evaluation on rabbits, by studying the absence of abnormal toxicity via single oral administration to rats, and by studying the sensitizing power on guinea pigs.
(§2) The preparations described were administered in a single portion orally at a dose of 2 g/kg of body weight, to 5 male rats and 5 female rats according to a protocol inspired by the OCDE Directive No. 401 of 24 February 1987 and adapted to cosmetic products.

in vivo = details: both, rat, po
Procedure: as §1, §2

Question: With COc1cc(/C=C/C(=O)NCCc2ccc(O)c(O)c2)ccc1O [Example 1, N-trans-feruloyldopamine] as the compound, how does the Ocular irritation classification (eye of rabbits) read?
Answer: non-irritant to the eyes

Question: What about the “Inhibition of fungal tyrosinase, percentage of inhibition, Mean 10^−4M” value (fungal tyrosinase; 10^−4M) of the same compound?
Answer: 9.18%

Question: What about the “Inhibition of fungal tyrosinase, percentage of inhibition, Mean 10^−5M” value (fungal tyrosinase; 10^−5M) of the same compound?
Answer: 0%

Question: And the inhibition at 100 µM (Human tyrosinase; 10^−4M, read-out: Inhibition of human tyrosinase, percentage of inhibition, Mean 10^−4M)?
Answer: 0%

Question: What about the inhibition at 10 µM (Human tyrosinase; 10^−5M, read-out: Inhibition of human tyrosinase, percentage of inhibition, Mean 10^−5M) of the same compound?
Answer: 0%

Question: And the “Primary skin irritation classification” value (skin of rabbits)?
Answer: non-irritant to the skin

Question: And the “Antiradical activity, Mean 10^−5 M” value [1]?
Answer: 60.01%

Question: What about the Skin sensitization classification (guinea pigs) of the same compound?
Answer: not sensitizing on contact with the skin

Question: And the “Percentages of viability, Mean 10^−4 M” value (normal human melanocytes; 10^−4 M)?
Answer: 94.49%

Question: What about the “Percentages of viability, Mean 10^−5 M” value (normal human melanocytes; 10^−5 M) of the same compound?
Answer: 119.83%

Question: And the LD0 (rats)?
Answer: greater than 2000 mg/kg

Question: What about the LD50 (in vivo) of the same compound?
Answer: > 2000 mg/kg
